Patent US20090048155A1 (priority 2007, published 2009)

Columns and labels:
[1] = tested on: Y. pestis CO99pgm-; parameters: species or system Sprague-Dawley rats; conditions: rat, in vivo
[2] = tested on: Y. pestis CO99pgm-; parameters: species or system Sprague-Dawley rats; conditions: rat, in vivo; remark: listed apart in the source

O=C(O)c1cn(C2CC2)c2cc(N3CCNCC3)c(F)cc2c1=O [Cipro, ciprofloxacin]
6-day survival rate [1]: 100%
Median Survival Time [1]: 84 h
Survival [1]: 28%
leukocyte infiltration index (LII) [2]: did not significantly improve
lung edema [2]: did not significantly improve
lung scores (combined interstitial and alveolar edema and hemorrhage and LII scores) [2]: did not significantly improve
